Data published in publication PMC13017400, “ENPP1 inhibition as a therapeutic approach for later-onset hypophosphatasia” (Journal of Bone and Mineral Research, 2025).

Biological target: T1, ENPP1 (ectonucleotide pyrophosphatase/phosphodiesterase 1) (Mus musculus, UniProt P06802)
T1 sequence (P06802 1-906): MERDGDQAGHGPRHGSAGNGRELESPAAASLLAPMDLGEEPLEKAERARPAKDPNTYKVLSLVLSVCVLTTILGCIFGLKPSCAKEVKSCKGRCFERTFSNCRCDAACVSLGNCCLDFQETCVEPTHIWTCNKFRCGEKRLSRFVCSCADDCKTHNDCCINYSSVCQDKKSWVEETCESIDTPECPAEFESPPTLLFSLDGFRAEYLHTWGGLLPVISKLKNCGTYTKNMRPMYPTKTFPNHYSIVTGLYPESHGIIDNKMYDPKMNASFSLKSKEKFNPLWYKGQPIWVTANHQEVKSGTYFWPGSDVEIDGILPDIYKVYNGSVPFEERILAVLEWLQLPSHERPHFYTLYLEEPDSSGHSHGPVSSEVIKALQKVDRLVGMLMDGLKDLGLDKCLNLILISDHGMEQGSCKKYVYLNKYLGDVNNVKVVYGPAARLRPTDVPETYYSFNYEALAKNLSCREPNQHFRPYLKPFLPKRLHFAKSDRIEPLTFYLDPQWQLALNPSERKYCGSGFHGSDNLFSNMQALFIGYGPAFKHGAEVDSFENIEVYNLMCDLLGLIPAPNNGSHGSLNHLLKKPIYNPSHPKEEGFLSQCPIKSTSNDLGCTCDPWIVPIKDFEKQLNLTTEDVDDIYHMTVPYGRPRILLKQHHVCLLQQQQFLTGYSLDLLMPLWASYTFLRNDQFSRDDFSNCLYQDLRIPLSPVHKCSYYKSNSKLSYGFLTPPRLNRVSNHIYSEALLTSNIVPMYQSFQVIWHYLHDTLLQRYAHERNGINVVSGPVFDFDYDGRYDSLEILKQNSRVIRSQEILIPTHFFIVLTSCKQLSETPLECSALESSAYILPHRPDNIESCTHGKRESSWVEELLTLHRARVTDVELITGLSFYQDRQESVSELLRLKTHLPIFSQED
Test: Transcreener AMP/GMP TR-FRET enzymatic assay, […] mouse ENPP1 protein, […] ATP
Assay type: biochemical

- IC50: 6.3 nM
Substance: REV102
